Reference: PubChem BioAssay (NCI)
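Dose response: 5 concentrations. Exposure: 48 h. Format: 96-well plates. Endpoint: linear interpolation; highest concentration if not reached. The concentration for 50% growth inhibition is given as GI50. TGI marks complete inhibition of growth.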

Tests used:
Assay in all cases: NCI tumour cell line growth inhibition, 48 h
HL-60(TB) leukemia = system: HL-60(TB) leukemia
RPMI-8226 leukemia = system: RPMI-8226 leukemia
UACC-62 melanoma = system: UACC-62 melanoma
CCRF-CEM leukemia = system: CCRF-CEM leukemia
UO-31 renal = system: UO-31 renal
SK-MEL-5 melanoma = system: SK-MEL-5 melanoma
BT-549 breast = system: BT-549 breast
SF-539 CNS = system: SF-539 CNS
NCI/ADR-RES ovarian = system: NCI/ADR-RES ovarian
PC-3 prostate = system: PC-3 prostate

Compound	TGI (HL-60(TB) leukemia) [µM]	TGI (RPMI-8226 leukemia) [µM]	TGI (UACC-62 melanoma) [µM]	TGI (CCRF-CEM leukemia) [µM]	TGI (UO-31 renal) [µM]	TGI (SK-MEL-5 melanoma) [µM]	TGI (BT-549 breast) [µM]	TGI (SF-539 CNS) [µM]	TGI (NCI/ADR-RES ovarian) [µM]	TGI (PC-3 prostate) [µM]	GI50 (HL-60(TB) leukemia) [nM]	GI50 (RPMI-8226 leukemia) [µM]	GI50 (BT-549 breast) [µM]	GI50 (SF-539 CNS) [µM]	GI50 (NCI/ADR-RES ovarian) [nM]	GI50 (PC-3 prostate) [µM]	GI50 (CCRF-CEM leukemia) [nM]	GI50 (UO-31 renal) [nM]	GI50 (SK-MEL-5 melanoma) [µM]	GI50 (UACC-62 melanoma) [µM]
CC(=O)O[C@]12CCCCCC1C1(O)C(O)CCC[C@H]12 (some centres undefined)	> 100	> 100	> 100	> 100	> 100	> 100	–	–	–	–	–	–	–	–	–	–	–	–	–	–
CSc1c(C#N)c(N)n2c1C(=O)N(c1ccccc1)C2=S	> 100	–	> 100	> 100	> 100	> 100	> 100	> 100	> 100	> 100	–	–	–	–	–	–	–	–	–	–
COC(=O)c1c2c(cc3c1CC1(C3)Cc3cc4c(c(C(=O)OC)c3C1)CCCC4)CCCC2	74.5	> 100	> 100	96	1.23	> 100	–	> 100	> 100	39.5	–	–	–	–	–	–	–	–	–	–
Cc1nn(C(=O)Cc2ccccc2)c2c1C(c1ccc(O)cc1)SC(N)=N2 (centres undefined)	> 100	> 100	> 100	> 100	> 100	> 100	> 100	> 100	–	> 100	–	–	–	–	–	–	–	–	–	–
C=CC[C@]12C[C@@H](C(=O)OC)N(C(=O)OC)[C@H]1N(S(=O)(=O)c1ccccc1)c1ccccc12	> 100	> 100	–	> 100	> 100	> 100	> 100	> 100	> 100	> 100	–	–	–	–	–	–	–	–	–	–
C=C[C@@H]1C(CO)=CCC2[C@H]1CCC1C(C)(C)C(=O)CC[C@]21C (some centres undefined)	> 100	> 100	> 100	> 100	> 100	> 100	–	> 100	> 100	> 100	–	–	–	–	–	–	–	–	–	–
O=C(CNc1ccccc1Cl)Nn1c(-c2ccccc2)nc2ccccc2c1=O	65.7	> 100	> 10	70.5	> 100	21.8	25.5	43.6	–	99	–	–	–	–	–	–	–	–	–	–
CCN(C(=S)N[C@@H](Cc1ccccc1)C(=O)N[C@@H](CC(C)C)C(=O)OC)c1ccccc1	–	> 100	> 100	> 100	> 100	> 100	> 100	> 100	> 100	> 100	–	–	–	–	–	–	–	–	–	–
COCOc1ccc(Cn2c(=O)n(C)c(=O)c3c2ncn3C)cc1[N+](=O)[O-]	> 100	> 100	> 100	> 100	> 100	–	–	> 100	–	–	–	–	–	–	–	–	–	–	–	–
O=C(NC(Cc1ccc(I)cc1)C(=O)O)c1ccc(I)cc1 (centres undefined)	> 100	> 100	> 82.1	> 100	> 36.6	> 100	–	> 100	> 100	–	–	–	–	–	–	–	–	–	–	–
O=C(/C=C/c1ccsc1)c1ccsc1	40.6	47.2	89.9	45.2	28.7	35.1	–	37.9	> 100	35.6	–	–	–	–	–	–	–	–	–	–
Cc1c(S(=O)(=O)/N=C(\N)Nc2ccc(Cl)cc2)sc2ccc(Cl)cc12	63.5	> 100	45.4	–	35.9	> 100	58	> 100	47.1	28.2	–	–	–	–	–	–	–	–	–	–
CCOc1cc(C2CC(c3ccc(NS(=O)(=O)c4cc([N+](=O)[O-])ccc4C)cc3)=NN2C(=O)c2ccccc2)ccc1O (centres undefined)	65.4	> 100	–	> 100	> 100	37.8	93.3	52.8	> 100	> 100	–	–	–	–	–	–	–	–	–	–
C=CCOC(=O)CC[N+]1=CCC(c2ccccc2)(c2ccccc2)O1	–	–	> 100	–	> 100	> 100	> 100	> 100	–	> 100	–	–	–	–	–	–	–	–	–	–
O=C(N=Nc1cc(Cl)ccc1Cl)NNc1cc(Cl)ccc1Cl	32.4	33.8	27	49.8	29	25.3	–	–	61.2	22.8	–	–	–	–	–	–	–	–	–	–
Cc1ccccc1C(O)(c1nccn1C)c1nccn1C	> 100	–	> 100	> 100	> 100	> 100	> 100	> 100	> 100	> 100	–	–	–	–	–	–	–	–	–	–
COc1ccc2cc(-c3ccc(-c4ccc(C(=N)N)s4)s3)ccc2c1	5.34	5.06	–	4.21	9.72	30.2	38.5	19.2	4.87	4.33	1840	2.16	17.6	3.91	2290	2.13	1510	2880	16.1	–
O=C1C[C@H](Sc2ccccc2)C2(OCCO2)[C@@H](Sc2ccccc2)C1	–	–	4.63	1.76	3.49	4.23	5.41	4.05	4.92	13.8	–	–	–	–	–	–	–	–	–	–
c1ccc2c(c1)NC(C1OC3CCCN3C1C1Nc3ccccc3S1)S2 (centres undefined)	46.7	76.3	> 100	> 100	> 100	> 100	> 100	> 100	–	> 100	–	–	–	–	–	–	–	–	–	–
COc1nc(C#CCC(C)O)nc(OC)n1 (centres undefined)	94.6	–	37.3	–	37.8	34.7	36	59.2	43.5	54.6	–	–	–	–	–	–	–	–	–	–
O=C1C=CC(=O)N1Nc1ccc([N+](=O)[O-])cc1[N+](=O)[O-]	> 51.5	> 68.7	> 100	> 34.3	> 100	> 100	–	> 100	–	–	–	–	–	–	–	–	–	–	–	–
COc1cc([N+](=O)[O-])c(OC)cc1-c1nc2sc(Cl)cn2c1/C=N/Nc1ccccn1	–	> 50	> 50	> 50	> 50	36	38.7	16.8	–	> 50	–	30.1	15.5	9.7	–	16.4	> 50000	> 50000	12.8	26
